Source: US9782379B2, “Use of protectin DX for the stimulation of muscular IL-6 secretion” (Universite Laval, priority 2013, dated 2017)

Tests used:
Format in all cases: in vivo
IL-6 null (KO) mice = assay: second paired saline/lipid infusion 2.5 mU/kg/min hyperinsulinemic-euglycemic clamp, IL-6 null mice
Protocol: (§1) For the second paired lipid infusion HIE clamp study, 10 week old male B6.129S2-ll6^tmkopf/J (IL-6 KO) and control C57BL/6J (WT) mice from Jackson Labs were used. Mice from each genetic background were randomly assigned to saline-vehicle, saline-PDX, lipid-vehicle and lipid-PDX groups. The lipid-infusion clamp study was performed as described above, except the clamp was performed with a 2.5 mU·kg^−1·min^−1 insulin infusion as per^29.
(§2) To confirm the involvement of IL-6 in the beneficial effects of PDX we performed a second round of paired lipid infusion hyperinsulinemic-euglycemic clamp studies in IL-6 null (KO) mice alongside wild-type (WT) C57BL/6J control mice. Saline-infused mice treated with PDX were added to the study to ascertain whether PDX also improves glucose metabolism in insulin-sensitive mice. To ensure detection of potential differences between insulin-sensitive saline-infused animals we performed 2.5mU/kg/min rather than 4 mU/kg/min clamps.

[1] = system: wild-type (WT) C57BL/6J control mice; assay: second paired saline/lipid infusion 2.5 mU/kg/min hyperinsulinemic-euglycemic clamp, wild-type mice
Protocol: as §1, §2

db/db mice = assay: 5 days PDX treatment of db/db mice with hyperinsulinemic-isoglycemic clamp
Protocol: In order to determine whether these beneficial effects of PDX could be sustained or improved with a prolonged treatment regimen, we administered 2 μg of PDX or vehicle (i.v.) twice daily to 17 week old db/db for 5 days leading up to the clamp experiment (FIGS. 10 and 11).
The hyperinsulinemic-isoglycemic clamp (FIG. 11) is the gold-standard for evaluating insulin stimulated glucose metabolism in viva Animals were fasted around 8 am (t=−300 min), and received a first injection of either PDX (2 μg/mice) or the vehicle (10% Ethanol) at t=−240 min. A second injection was given at time −90 min, after which the clamp procedure per se was started. This procedure consisted of a 90-min tracer equilibration period (t=−90 to 0 min) followed by a 120 min hyperinsulinemic isoglycemic clamp (t=0 to 120 min). A 50 μl blood sample was obtained at t=−90 min to determine radioactive-free plasma activity. A 0.5 μCi bolus of [3-3H]-glucose was given at t=−90 min followed by a 0.033 μCi/min infusion for 90 min (t=−90 to 0 min). At t=−30, -20, -10 and 0 min, blood samples were taken for the assessment of basal glucose and glucose specific activity. The insulin infusion began at t=0 min with a primed-continuous infusion of human insulin (16 mU/kg bolus followed by a 4 mU/kg/min infusion), to achieve plasma insulin concentrations 2.5-fold over basal concentrations. At t=0 min, the [3-3H]-glucose infusion was increased to 0.066 μCi/min for the remainder of the experiment to minimize changes in specific activity from the equilibration period. Isoglycemia was maintained by measuring blood glucose every 10 min starting at t=0 min and infusing 20% glucose as necessary to preserved the blood glucose at basal levels. Blood samples were taken every 10 min from t=90 to 120 min for the determination of glucose specific activity.

[2] = saline and lipid-infused KO mice
[3] = saline and lipid-infused WT mice, P<0.05

## CC/C=C\C[C@H](O)/C=C/C=C\C=C\[C@@H](O)C/C=C\C/C=C\CCC(=O)O [PDX, 10S,17S-dihydroxy-docosa-4Z,7Z,11E,13Z,15E,19Z-hexaeonic acid]
IL-6 null (KO) mice; KO mice, saline and lipid-infused
  activation of hepatic STAT-3: completely absent
IL-6 null (KO) mice; lipid-infused IL-6 KO mice, P<0.001
  lipid-induced elevations in circulating TNFa: potently suppress
IL-6 null (KO) mice; lipid-infused KO mice
  effect on hepatic insulin action: only partially lost
  effect on peripheral insulin action: completely absent
  effects on suppression of Ppargc1, Pck1 and G6Pc: entirely absent
  stimulatory effect on AMPK phosphorylation (muscle): fully maintained
IL-6 null (KO) mice; [2]
  IL-6 in skeletal muscle: failed to raise
  effect on pre-clamp glycemia: completely absent
  enhancement of GIR: this was not the case
IL-6 null (KO) mice; saline-infused KO mice
  effect on hepatic insulin action: completely absent
  effect on transcriptional repression of PEPCK: completely absent
  improved suppression of G6Pc: this was not the case
[1]; insulin sensitive saline infused mice
  Akt phosphorylation: without raising
[1]; lipid-infused WT mice, P<0.001
  hepatic insulin action: improved
[1]; lipid-infused WT mice, P<0.01, P<0.05, p<0.001
  suppression of Ppargc1, Pck1 and G6Pc (liver mRNA): significantly improved the suppression
[1]; lipid-infused WT mice, P<0.05
  peripheral insulin action: improved
[1]; [3]
  GIR: significantly enhanced
  pre-clamp glycemia: significant fall
[1]; saline-infused WT mice, P<0.01
  transcriptional repression of PEPCK (liver): additive effect
[1]; saline-infused WT mice, P<0.05
  hepatic insulin action: superior hepatic insulin action
[1]; saline-infused WT mice, P=0.0614
  suppression of G6Pc (liver): tended to improve
[1]; saline-infused mice
  peripheral glucose disposal: did not increase
  suppression of PGC-1α (liver mRNA): not associated with further suppression
db/db mice; 2 μg PDX i.v. twice daily for 5 days vs vehicle
  total body weight: no significant changes
db/db mice; 5 day PDX treatment
  IL6 levels in eWAT: no such increase
  fasting blood glucose: not affected
  plasma IL-6: trend for increased
  plasmatic insulin levels: not affected
db/db mice; PDX-treated vs vehicle-treated
  cytokines content in the eWAT: no difference
db/db mice; after the 5 days PDX treatment
  insulin sensitivity (glucose infusion rate, GIR): clear improvement
db/db mice; end of the 5 days treatment
  weight of tissues (iWAT, eWAT, liver, gastrocnemius, pancreas): No significant changes
db/db mice; gastrocnemius, P<0.05
  skeletal muscle IL-6: elevated
